From patent US8466291B2, “1,5-dideoxy-1,5-imino-D-glucitol compounds” (Academia Sinica, priority 2008, dated 2013)

Columns and labels:
human Hex B (FLAG-HexB) = biological target: T1, human Hex B (FLAG-HexB) (Homo sapiens, UniProt P07686); test: In situ immunostaining of Compound 5 and FLAG-HexB in 293T/FLAG-HexB cells; assay type: cell-based; conditions: confocal immunofluorescence, anti-FLAG and anti-biotin antibodies
T1 construct: FLAG (N); expressed in transfected cells
T1 sequence (P07686 122-556): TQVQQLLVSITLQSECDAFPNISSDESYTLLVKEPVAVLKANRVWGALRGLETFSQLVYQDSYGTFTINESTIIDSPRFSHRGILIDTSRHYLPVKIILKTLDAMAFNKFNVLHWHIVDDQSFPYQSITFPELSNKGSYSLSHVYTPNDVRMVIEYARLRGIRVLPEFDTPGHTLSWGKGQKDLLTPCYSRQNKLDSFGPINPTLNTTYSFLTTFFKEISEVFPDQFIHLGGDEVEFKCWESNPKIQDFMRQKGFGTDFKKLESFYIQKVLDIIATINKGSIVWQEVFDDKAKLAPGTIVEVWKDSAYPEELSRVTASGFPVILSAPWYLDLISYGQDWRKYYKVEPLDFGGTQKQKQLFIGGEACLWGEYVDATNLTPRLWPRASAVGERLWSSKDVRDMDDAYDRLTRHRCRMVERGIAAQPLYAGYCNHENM
Description: A DNA fragment encoding human Hex B was amplified by PCR and cloned into pCMV-Tag 2B vector (Stratagene) to produce FLAG-tagged HexB expression plasmid (pFLAG-HexB). This plasmid was introduced into 293T cells to establish a cell line stably expressing FLAG-HexB. Briefly, 293T cells were maintained in Dulbecco's modified Eagle's medium (DMEM) supplemented with 10% (by volumn) heat inactivated fetal bovine serum (FBS), 2 mM glutamine, 100 units/mL penicillin and 100 μg/mL streptomycin at 37° C. in a 5% CO2 atmosphere. These cells were transfected with expression plasmid pFLAG-HexB and plasmid pBabe-puro (carrying a puromycin resistance gene) at a molar ratio of 30-40:1. 8 hours later, the transfected cells were fed with fresh medium and incubated for 16 h. These cells were then cultured in puromycin-containing (2 μg/mL) medium for 2-3 weeks to screen for puromycin-resistant clones.
Binding of Compound 5 to HexB was first examined by in situ immunostaining as follows. 293T/FLAG-HexB cells were grown on glass coverslips in the presence of biotin-conjugated Compound 5 and fixed in 4% paraformaldehyde for 15 min. […]

Human O-GlcNAcase = biological target: T2, Human O-GlcNAcase (Homo sapiens, UniProt O60502); test: Inhibition of human O-GlcNAcase; assay type: biochemical; conditions: Table 2
T2 construct: made in house
T2 sequence (O60502 1-916): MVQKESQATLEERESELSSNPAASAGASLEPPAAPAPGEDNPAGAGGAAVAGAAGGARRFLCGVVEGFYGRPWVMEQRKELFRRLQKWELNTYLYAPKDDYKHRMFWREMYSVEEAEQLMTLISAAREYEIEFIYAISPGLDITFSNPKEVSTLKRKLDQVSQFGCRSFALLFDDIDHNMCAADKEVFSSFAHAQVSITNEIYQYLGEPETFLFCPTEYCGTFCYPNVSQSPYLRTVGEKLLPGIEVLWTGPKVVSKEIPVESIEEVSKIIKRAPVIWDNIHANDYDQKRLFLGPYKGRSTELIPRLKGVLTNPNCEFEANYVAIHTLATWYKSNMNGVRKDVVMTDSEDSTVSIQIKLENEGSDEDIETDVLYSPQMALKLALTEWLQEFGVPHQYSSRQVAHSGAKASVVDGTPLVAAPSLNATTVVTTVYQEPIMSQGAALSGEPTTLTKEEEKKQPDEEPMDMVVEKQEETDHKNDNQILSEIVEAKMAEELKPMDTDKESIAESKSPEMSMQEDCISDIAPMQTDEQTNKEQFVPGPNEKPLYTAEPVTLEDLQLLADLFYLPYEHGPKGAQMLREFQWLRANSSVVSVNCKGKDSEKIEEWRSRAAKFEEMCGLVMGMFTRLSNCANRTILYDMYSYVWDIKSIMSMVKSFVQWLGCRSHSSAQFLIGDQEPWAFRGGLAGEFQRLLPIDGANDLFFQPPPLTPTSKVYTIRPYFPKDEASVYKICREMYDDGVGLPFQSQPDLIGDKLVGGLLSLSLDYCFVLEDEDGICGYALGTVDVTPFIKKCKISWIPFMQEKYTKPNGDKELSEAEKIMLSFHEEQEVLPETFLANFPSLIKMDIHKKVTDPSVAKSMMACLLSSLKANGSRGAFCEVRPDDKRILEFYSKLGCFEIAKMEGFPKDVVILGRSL
Description: Human O-GlcNAcase was also prepared and tested according to the procedures described in Gao et al., J. Biol. Chem. 2001, 276, 9838-9845 and Macauley et al., J. Am. Chem. Soc. 2005, 127, 17202-17203.

SMILES: CC(=O)NC1CN(CCCCCCCNC(=O)CCCCC2SCC3NC(=O)NC32)C(CO)C(O)C1O (stereo not drawn) [Compound 5]
- co-localization of FLAG-HexB and compound (human Hex B (FLAG-HexB)): co-localized in the cytoplasm
- Selectivity (KI O-GlcNAcase/KI HEX) (Human O-GlcNAcase; Human O-GlcNAcase over human HEX B): 5,400
- Ki (Human O-GlcNAcase; Human O-GlcNAcase): 145 ± 1.77 µM
